Like-named read-outs stand apart in the source and are kept apart here.

One series is described as follows: Acute toxicity test. The conditions noted are these: for LD50 at 336 h / General Status: mouse, in vivo; for LD50 at 336 h: ICR male mice, 14 days, read-out: LD50/14 (50% death rate over 14 days). Type of series: in vivo. On the procedure:
Acute toxicity test and other tests regarding radiosensitising ability and antiviral activity were carried out using the compounds of the present invention.
ICR strain male mice of 5 week old were intravenously or intraperitoneally administered with various compounds each dissolved in a physiological saline or in a physiological saline containing 10% DMSO. The mice were observed over 14 days and 50% death rates (LD50/14) were obtained.

For the next series, the system named is EMT-6 tumor. The series can be described thus: Radiosensitivity in vivo test (EMT-6 tumor). On the set-up: species or system Balb/c mice. The settings on record: 200 mg/kg intraperitoneal 20 minutes prior to whole body 60Co irradiation. On the procedure: Tested compound: compound (3), 200 mg/kg
Compound (3) dissolved in a physiological saline was intraperitoneally administered 20 minutes prior to irradiation.
Irradiation: ^60 Co - gamma rays, whole body irradiation
Determination of radiosensitivity enhancement:
Enhancement ratio (ER) was obtained from irradiation dose and reduction ratio of tumor cells.

The subject of series [1] is Herpes simplex virus type I. The series can be described thus: Antiviral activity test (cytopathic effect in Vero cells). On the set-up: key: 0: almost all cells are dead; 1: certain effect of test agent with some dead cells; 2: normal. The conditions noted are these: one day. Type of series: cell-based. The procedure:
(3) Antiviral activity test Virus: Herpes simplex virus type I Cells: Vero (monkey kidney cells) Culture medium: 2% FBS MEM A sample conditioned to contain 2×10^5 /ml of vero cells was cultured at 37° C. in an atmosphere of 5% CO2 for 1 day to obtain a monolayer sample. The sample was infected by HSV virus diluted with PBS (phosphate buffer). Compound (I) was dissolved in DMSO, then adjusted to have concentrations of 100 μg/ml, 50 μg/ml, 10/μg/ml,5,μ/ml and 1 μg/ml by 2% FBS MEM, and served as test agents. The culture cells were added with each agent separately and incubated at 37° C. in a Co2 incubator for one day. The cytopathic effect was observed under microscope. Cells were stained by crystal violet and scored as follows: 0: almost all cells are dead 1: certain effect of test agent with some dead cells 2: normal The results are shown in Table 3.

Another series has as its system single cells of EMT-6. Put plainly: Radiosensitivity test, in vitro test 1 (single cells of EMT-6, hypoxic). The series is classed as cell-based. The conditions noted are these: 1.0 mM, single EMT-6 cells, 60Co gamma rays. The source says: Cells used in the test: single cells of EMT-6
Irradiation: ^60 Co - gamma rays
Cell treatment to hypoxia:
A mixture gas of 95% nitrogen and 5% carbon dioxide was passed through cell suspension.
Determined by counting colonies.
Radiosensitivity enhancement ratio (ER): [formula]

A further series deals with Spheroids of EMT-6. The series can be described thus: Radiosensitivity test, in vitro test 2 (spheroids of EMT-6). The settings on record: 1 mM, 37° C. over 30 to 60 minutes, 60Co gamma rays. The series is classed as cell-based. The procedure: (b) In vitro test 2 Cells used in the test: Spheroids of EMT-6 Irradiation: ^60 Co - gamma rays Tested compound: Compound (3), 1 mM Determination of radiosensitivity enhancement: Six particles of spheroid having a certain size were taken and placed in a culture solution containing compound (3) having a concentration of 1 mM, and incubated at 37° C. over 30 to 60 minutes, followed by irradiation. The spheroids were treated by trypsin and then the enhancement ratio (ER) was obtained by counting colonies.

With `CC(=O)OCC(COC(C)=O)OCn1cnc([N+](=O)[O-])n1` [(2), 1-[2-acetoxy-1-(acetoxymethyl)ethoxy]methyl-3-nitro-1,2,4-triazol], the Dead/Treated is recorded as 0/2 in the series “Acute toxicity test” (intraperitoneal, 600 mg/kg); 0/2 in “Acute toxicity test” (intraperitoneal, 720 mg/kg); 2/2 in “Acute toxicity test” (intraperitoneal, 860 mg/kg). In addition, in the series “Acute toxicity test” (ip, intraperitoneal), the LD50 at 336 h amounted to 790 mg/kg.
With `O=[N+]([O-])c1nccn1COC(CO)CO` [Compound (3), 1-[2-hydroxy-1-(hydroxymethyl)ethoxy]methyl-2-nitroimidazol], the “enhancement ratio (ER)” value with EMT-6 tumor and in the series on Spheroids of EMT-6 was 1.55 each time. The Dead/Treated in “Acute toxicity test” (intravenous, 720 mg/kg) was 0/2; in the series “Acute toxicity test” (intravenous, 860 mg/kg), 0/2. In addition, the “General Status” value in the series “Acute toxicity test” (iv) is listed as “Calmed down”. Besides, in “Acute toxicity test” (intravenous), the LD50 at 336 h is over 860 mg/kg. Besides, the cytopathic effect score in series [1] (1 μg/ml) stood at 0; in series [1] (5 μg/ml) it was 0; in series [1] (10 μg/ml), 1; in series [1] (50 μg/ml), 2; in series [1] (100 μg/ml), 2. Further, the “Radiosensitivity enhancement ratio (ER)” value with single cells of EMT-6 came to 1.70.
For `CC(=O)OCC(COC(C)=O)OCn1ccnc1[N+](=O)[O-]` [(1), 1-[2-acetoxy-1-(acetoxymethyl)ethoxy]methyl-2-nitroimidazol], the Dead/Treated in “Acute toxicity test” (intraperitoneal, 720 mg/kg) is 0/2; in the series “Acute toxicity test” (intraperitoneal, 860 mg/kg), 0/2. In “Acute toxicity test” (ip), the “General Status” value is listed as “Calmed down”. Further, the LD50 at 336 h in the series “Acute toxicity test” (ip, intraperitoneal) is over 860 mg/kg.
In the case of `O=[N+]([O-])c1ncn(COC(CO)CO)n1` [(4), 1-[2-hydroxy-1-(hydroxymethyl)ethoxy]methyl-3-nitro-1,2,4-triazol], the Dead/Treated is recorded as 0/2 in “Acute toxicity test” (intravenous, 720 mg/kg) and 1/2 in “Acute toxicity test” (intravenous, 860 mg/kg). Besides, the “General Status” value in the series “Acute toxicity test” (iv) was “Calmed down”. The LD50 at 336 h in the series “Acute toxicity test” (intravenous) was found to be 860 mg/kg. Besides, the cytopathic effect score in series [1] (1 μg/ml) was 0; in series [1] (5 μg/ml), 0; in series [1] (10 μg/ml), 1; in series [1] (50 μg/ml), 2; in series [1] (100 μg/ml), 2. Also, the “Radiosensitivity enhancement ratio (ER)” value with single cells of EMT-6 is reported as 1.50.

Source of the values: patent US4945102A, “Heterocyclic derivatives and radiosensitizing agents and antiviral agents comprising same as their active component” (Pola Chemical Industries Inc., Japan, priority 1987, dated 1990).
